The text below walks through data of patent US7998973B2 (AVEO Pharmaceuticals, Inc., priority 2009, dated 2011).

Molecules are shown by their SMILES. Read-outs that look alike come from different tables or passages of the source.

In general, half-life refers to the time in which the quantity being followed falls by half.

The conditions of data set [1]: cited from earlier work.
The nature of data set [2]: pharmacokinetics in the human body. It is filed as in vivo. The settings on record: for accumulation: human. The text has this:
Serum levels reach steady state after about 2-3 weeks.
Therefore, […] is expected to exert physiological effects after temsirolimus has been cleared.

For data set [3] the following is noted: cited from earlier work. This is another data set of the same source.
A further data set concerns the target VEGF receptor 3 (Homo sapiens, UniProt P35916). The settings on record: cited from earlier work.
The conditions of data set [4]: preclinical models; cited from earlier work.

Chain of VEGF receptor 3 (P35916 25-1363): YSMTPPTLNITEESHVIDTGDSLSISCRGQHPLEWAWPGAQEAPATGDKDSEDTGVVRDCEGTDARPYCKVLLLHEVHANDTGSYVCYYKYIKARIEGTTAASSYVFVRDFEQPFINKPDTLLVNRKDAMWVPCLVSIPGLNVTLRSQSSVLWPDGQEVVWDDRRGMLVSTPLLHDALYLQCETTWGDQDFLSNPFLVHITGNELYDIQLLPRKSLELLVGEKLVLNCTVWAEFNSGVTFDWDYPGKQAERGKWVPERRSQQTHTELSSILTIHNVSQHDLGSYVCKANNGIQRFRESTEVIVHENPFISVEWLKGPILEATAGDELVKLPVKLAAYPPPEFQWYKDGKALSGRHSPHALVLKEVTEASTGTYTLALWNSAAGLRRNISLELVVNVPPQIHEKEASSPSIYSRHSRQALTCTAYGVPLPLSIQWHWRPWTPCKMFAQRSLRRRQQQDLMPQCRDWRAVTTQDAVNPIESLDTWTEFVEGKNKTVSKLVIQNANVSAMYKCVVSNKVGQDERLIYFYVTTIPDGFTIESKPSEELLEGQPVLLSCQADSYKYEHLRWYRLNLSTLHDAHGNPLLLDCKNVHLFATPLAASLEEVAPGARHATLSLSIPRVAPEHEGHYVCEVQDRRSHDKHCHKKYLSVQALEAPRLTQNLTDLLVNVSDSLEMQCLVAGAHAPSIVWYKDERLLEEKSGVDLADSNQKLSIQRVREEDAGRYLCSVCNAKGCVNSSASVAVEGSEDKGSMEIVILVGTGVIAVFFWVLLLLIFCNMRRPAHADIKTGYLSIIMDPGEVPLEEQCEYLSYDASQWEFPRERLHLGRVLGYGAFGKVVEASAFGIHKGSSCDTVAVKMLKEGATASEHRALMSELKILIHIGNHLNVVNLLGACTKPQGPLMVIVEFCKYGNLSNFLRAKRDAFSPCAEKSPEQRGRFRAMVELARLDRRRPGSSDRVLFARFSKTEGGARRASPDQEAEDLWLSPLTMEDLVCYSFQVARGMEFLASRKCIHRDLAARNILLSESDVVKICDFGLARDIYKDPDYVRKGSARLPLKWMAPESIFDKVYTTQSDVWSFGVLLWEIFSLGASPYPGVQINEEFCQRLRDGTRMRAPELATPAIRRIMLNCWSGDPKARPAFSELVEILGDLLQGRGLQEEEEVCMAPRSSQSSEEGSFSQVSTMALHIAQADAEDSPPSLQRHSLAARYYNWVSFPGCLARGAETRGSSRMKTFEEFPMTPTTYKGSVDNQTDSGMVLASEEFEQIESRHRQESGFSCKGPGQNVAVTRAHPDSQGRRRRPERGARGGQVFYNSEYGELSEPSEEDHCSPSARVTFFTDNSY

Consider `CO[C@H]1C[C@@H]2CC[C@@H](C)[C@@](O)(O2)C(=O)C(=O)N2CCCC[C@H]2C(=O)O[C@H]([C@H](C)C[C@@H]2CC[C@@H](OC(=O)C(C)(CO)CO)[C@H](OC)C2)CC(=O)[C@H](C)/C=C(\C)[C@@H](O)[C@@H](OC)C(=O)[C@H](C)C[C@H](C)/C=C/C=C/C=C/1C` [temsirolimus, 42-(3-hydroxy-2-(hydroxymethyl)-2-methylpropanoate) rapamycin], for which the half-life entry in data set [1] (human body) is reported as “approximately 17 hours”. For the same compound, the accumulation entry in data set [2] is “does not appear to accumulate more than would be expected based on its half life”.
For `COc1cc2nccc(Oc3ccc(NC(=O)Nc4cc(C)on4)c(Cl)c3)c2cc1OC` [tivozanib, N-{2-chloro-4-[(6,7-dimethoxy-4-quinolyl)oxy]-phenyl}-N′-(5-methyl-3-isoxazolyl)urea], the interim results in data set [3] (272-patient Phase 2 clinical trial) was “positive interim results”. The “most common side effects” value in data set [3] (Phase 1 and Phase 2 clinical trials) was “hypertension and dysphonia”. Also, the “dose at which safety had been established” value in data set [3] (previous trials, 4 weeks on, 2 weeks off or 3 weeks on, 1 week off) is reported as 1.5 mg/day. Besides, the “time for serum levels to reach steady state” value in data set [2] (chronic dosing) was 2-3 weeks. Moreover, the accumulation result in data set [2] is “accumulates in the serum after chronic dosing to a degree that would be expected based on its half-life”. Besides, the half-life in data set [2] (serum, human body) was 3.8 to 4.7 days. In addition, the inhibitory activity entry at VEGF receptor 3 is “picomolar inhibitory activity”. For the same compound, in data set [4], the antitumor activity result is given as “exhibits antitumor activity”.
Regarding `CO[C@H]1C[C@@H]2CC[C@@H](C)[C@@](O)(O2)C(=O)C(=O)N2CCCC[C@H]2C(=O)O[C@H]([C@H](C)C[C@@H]2CC[C@@H](O)[C@H](OC)C2)CC(=O)[C@H](C)/C=C(\C)[C@@H](O)[C@@H](OC)C(=O)[C@H](C)C[C@H](C)/C=C/C=C/C=C/1C` [sirolimus], the “half-life relative to parent compound temsirolimus” value in data set [1] (primary metabolite of temsirolimus) is “about three times that of the parent compound”.
